Target: T1, PRMT5 (protein arginine methyl transferase 5) (Homo sapiens, UniProt O14744)
T1 construct: human recombinant PRMT5/MEP50 complex; with MEP50
Assay: scintillation proximity radiometric methyltransferase assay (3H-SAM, histone H4 peptide); jump dilution
Type: biochemical

T1 sequence (O14744 2-637): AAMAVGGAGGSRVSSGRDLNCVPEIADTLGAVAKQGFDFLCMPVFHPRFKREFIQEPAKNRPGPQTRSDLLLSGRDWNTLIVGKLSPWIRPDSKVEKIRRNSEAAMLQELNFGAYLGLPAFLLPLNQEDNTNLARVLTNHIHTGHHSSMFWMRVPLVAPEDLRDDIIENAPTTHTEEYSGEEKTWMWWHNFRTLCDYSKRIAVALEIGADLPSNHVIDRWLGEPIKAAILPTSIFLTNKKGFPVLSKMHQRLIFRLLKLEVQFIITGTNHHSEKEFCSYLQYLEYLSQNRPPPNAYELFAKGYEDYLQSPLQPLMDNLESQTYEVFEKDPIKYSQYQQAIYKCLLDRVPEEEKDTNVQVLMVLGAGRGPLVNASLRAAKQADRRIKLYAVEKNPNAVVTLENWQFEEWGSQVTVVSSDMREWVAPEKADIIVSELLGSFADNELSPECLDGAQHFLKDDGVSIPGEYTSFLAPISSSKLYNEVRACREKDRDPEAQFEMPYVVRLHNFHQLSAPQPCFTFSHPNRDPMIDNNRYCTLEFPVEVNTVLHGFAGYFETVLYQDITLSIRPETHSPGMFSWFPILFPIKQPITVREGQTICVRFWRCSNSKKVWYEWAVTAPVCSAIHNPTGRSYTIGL
T1 sequence (Q9BQA1 whole entry partner): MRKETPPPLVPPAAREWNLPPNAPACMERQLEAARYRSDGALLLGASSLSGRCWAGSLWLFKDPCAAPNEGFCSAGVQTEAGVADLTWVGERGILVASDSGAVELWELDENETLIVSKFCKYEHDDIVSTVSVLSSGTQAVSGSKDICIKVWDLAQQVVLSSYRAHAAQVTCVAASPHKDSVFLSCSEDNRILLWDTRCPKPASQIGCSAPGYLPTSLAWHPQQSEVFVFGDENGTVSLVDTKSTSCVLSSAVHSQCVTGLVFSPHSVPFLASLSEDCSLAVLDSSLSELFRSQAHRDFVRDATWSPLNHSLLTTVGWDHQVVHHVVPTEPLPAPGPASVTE

- IC50: 10.8 nM
Substance: PRT543

From PMC11724466, “PRMT5 inhibition has a potent anti-tumor activity against adenoid cystic carcinoma of salivary glands” (Journal of Experimental & Clinical Cancer Research : CR, 2025)
